Reference: patent US11306084B2, “Integrin antagonists” (Saint Louis University, priority 2016, dated 2022)
Counter-ions that a name gives are not always drawn.

Tests used:
Format in all cases: binding
[1] = target: T1, Recombinant human integrin ανβ3 (Homo sapiens, UniProt P05106+P06756); assay: Solid Phase Receptor Assay (SPRA) for ανβ3 function; settings: for IC50: plate-bound human vitronectin, read-out: αvβ3 SPRA IC50
T1 construct: purchased R&D Systems 3050-AV

[2] = target: T2, Recombinant human integrin ανβ8 (Homo sapiens, UniProt P06756+P26012); assay: Solid Phase Receptor Assay (SPRA) for ανβ8 function; settings: for IC50: plate-bound human LAP, read-out: αvβ8 SPRA IC50
T2 construct: purchased R&D Systems 4135-AV

[3] = target: T3, Recombinant human integrin α5β1 (Homo sapiens, UniProt P05556+P08648); assay: Solid Phase Receptor Assay (SPRA) for α5β1 function; settings: for IC50: plate-bound human fibronectin
T3 construct: purchased R&D Systems 3230-A5

[4] = target: T4, Recombinant human integrin ανβ6 (Homo sapiens, UniProt P06756+P18564); assay: Solid Phase Receptor Assay (SPRA) for ανβ6 function; settings: for IC50: plate-bound human LAP, read-out: αvβ6 SPRA IC50
T4 construct: purchased R&D Systems 3817-AV
T4 sequence (P06756 31-992 limits assumed): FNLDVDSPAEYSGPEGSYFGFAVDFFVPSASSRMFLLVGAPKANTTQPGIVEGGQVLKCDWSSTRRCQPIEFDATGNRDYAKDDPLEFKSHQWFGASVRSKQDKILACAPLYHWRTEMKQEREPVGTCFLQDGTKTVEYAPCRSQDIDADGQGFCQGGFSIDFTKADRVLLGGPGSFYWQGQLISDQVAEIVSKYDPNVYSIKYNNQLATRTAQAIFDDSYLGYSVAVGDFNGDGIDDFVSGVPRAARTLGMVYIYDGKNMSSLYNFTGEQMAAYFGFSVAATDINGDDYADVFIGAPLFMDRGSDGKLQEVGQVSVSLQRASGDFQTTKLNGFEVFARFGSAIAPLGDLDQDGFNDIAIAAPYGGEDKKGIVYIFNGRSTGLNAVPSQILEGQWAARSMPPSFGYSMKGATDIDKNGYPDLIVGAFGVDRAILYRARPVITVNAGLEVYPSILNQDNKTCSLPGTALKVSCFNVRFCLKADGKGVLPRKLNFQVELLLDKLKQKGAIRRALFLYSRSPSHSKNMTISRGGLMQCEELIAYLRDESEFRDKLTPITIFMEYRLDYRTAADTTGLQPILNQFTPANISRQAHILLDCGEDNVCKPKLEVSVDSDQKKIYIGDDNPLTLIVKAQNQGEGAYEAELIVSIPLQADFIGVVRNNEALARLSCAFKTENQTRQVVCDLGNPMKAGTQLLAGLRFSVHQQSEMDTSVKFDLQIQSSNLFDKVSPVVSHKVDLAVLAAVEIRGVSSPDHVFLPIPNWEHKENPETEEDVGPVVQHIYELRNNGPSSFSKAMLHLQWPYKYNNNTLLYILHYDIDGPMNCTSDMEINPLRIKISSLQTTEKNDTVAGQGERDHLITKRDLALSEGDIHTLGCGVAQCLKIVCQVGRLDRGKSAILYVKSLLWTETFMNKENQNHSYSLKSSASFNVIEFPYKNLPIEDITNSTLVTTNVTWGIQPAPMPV
T4 sequence (P18564 22-707 limits assumed): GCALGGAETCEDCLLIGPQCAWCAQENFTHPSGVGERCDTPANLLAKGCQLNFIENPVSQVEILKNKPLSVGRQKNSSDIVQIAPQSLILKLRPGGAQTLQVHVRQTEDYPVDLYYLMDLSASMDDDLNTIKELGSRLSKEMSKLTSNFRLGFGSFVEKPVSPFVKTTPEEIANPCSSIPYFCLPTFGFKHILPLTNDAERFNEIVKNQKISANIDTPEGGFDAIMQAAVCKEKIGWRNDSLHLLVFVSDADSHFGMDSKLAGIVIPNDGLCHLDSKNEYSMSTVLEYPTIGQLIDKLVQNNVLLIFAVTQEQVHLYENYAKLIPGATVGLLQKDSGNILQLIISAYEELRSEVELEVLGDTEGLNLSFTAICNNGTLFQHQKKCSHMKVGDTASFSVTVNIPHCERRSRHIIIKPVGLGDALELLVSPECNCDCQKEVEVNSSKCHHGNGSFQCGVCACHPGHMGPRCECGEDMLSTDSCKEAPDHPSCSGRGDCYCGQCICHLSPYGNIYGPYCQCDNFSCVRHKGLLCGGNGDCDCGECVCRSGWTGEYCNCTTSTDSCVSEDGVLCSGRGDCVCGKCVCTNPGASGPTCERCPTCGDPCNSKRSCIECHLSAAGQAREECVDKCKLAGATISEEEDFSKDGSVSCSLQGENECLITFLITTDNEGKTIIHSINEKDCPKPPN

T3 sequence (P08648 42-995 limits assumed): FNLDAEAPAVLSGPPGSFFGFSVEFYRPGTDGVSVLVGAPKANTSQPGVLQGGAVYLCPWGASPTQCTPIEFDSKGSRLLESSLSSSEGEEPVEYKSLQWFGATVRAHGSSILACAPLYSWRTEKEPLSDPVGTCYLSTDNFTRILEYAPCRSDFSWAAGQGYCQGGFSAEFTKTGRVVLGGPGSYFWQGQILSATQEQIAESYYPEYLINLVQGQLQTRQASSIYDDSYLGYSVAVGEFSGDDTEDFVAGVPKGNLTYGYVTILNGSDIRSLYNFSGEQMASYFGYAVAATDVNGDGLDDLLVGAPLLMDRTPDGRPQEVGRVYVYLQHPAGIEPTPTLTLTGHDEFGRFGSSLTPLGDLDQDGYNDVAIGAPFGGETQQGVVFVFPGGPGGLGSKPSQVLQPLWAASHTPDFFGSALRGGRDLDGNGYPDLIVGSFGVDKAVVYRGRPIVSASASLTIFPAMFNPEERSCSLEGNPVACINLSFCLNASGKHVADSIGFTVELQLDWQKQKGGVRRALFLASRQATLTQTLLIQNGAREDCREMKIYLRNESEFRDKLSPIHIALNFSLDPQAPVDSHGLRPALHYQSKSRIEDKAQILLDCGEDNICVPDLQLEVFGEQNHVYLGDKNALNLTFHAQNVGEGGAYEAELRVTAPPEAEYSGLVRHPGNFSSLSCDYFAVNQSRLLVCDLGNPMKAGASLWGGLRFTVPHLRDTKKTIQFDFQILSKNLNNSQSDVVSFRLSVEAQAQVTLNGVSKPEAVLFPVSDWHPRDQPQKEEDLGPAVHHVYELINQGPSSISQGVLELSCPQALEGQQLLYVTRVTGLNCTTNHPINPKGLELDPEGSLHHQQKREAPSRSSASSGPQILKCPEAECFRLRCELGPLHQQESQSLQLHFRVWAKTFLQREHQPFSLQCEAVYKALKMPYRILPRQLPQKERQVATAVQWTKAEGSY
T3 sequence (P05556 21-728 limits assumed): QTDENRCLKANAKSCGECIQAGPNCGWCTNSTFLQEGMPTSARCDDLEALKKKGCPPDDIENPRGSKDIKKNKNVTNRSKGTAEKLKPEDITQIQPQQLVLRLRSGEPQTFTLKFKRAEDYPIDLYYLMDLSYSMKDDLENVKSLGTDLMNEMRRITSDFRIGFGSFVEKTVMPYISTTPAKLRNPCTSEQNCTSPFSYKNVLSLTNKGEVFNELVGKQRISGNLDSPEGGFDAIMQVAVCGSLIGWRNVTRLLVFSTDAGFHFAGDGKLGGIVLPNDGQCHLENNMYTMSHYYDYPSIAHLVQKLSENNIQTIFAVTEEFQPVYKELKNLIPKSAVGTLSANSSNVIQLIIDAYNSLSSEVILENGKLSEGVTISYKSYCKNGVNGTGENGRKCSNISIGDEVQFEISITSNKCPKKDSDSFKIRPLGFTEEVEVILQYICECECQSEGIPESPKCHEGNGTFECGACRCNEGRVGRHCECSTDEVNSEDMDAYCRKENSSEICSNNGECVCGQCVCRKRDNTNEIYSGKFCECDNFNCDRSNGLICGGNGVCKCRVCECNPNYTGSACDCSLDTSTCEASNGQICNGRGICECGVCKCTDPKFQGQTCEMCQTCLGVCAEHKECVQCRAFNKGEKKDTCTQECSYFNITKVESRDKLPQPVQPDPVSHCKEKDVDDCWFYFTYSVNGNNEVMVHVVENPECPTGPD
T2 sequence (P06756 31-992 limits assumed): as the sequence (P06756 31-992 limits assumed) above
T2 sequence (P26012 43-684 limits assumed): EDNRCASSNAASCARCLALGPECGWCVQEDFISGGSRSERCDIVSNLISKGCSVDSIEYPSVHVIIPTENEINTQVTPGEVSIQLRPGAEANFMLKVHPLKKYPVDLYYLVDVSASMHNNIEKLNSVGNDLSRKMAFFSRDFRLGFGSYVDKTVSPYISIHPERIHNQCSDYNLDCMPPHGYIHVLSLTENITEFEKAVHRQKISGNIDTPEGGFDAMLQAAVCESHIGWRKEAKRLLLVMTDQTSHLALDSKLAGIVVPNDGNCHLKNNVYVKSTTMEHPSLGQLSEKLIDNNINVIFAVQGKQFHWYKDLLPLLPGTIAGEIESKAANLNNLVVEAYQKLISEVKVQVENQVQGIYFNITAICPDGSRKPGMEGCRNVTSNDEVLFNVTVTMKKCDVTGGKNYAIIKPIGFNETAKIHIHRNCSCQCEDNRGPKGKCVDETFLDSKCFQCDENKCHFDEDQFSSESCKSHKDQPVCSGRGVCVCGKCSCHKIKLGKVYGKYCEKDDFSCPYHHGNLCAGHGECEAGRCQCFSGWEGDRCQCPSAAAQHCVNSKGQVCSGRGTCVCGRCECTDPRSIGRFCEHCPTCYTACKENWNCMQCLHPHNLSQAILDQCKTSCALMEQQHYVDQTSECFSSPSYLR
T1 sequence (P06756 31-992 limits assumed): as the sequence (P06756 31-992 limits assumed) above
T1 sequence (P05106 27-718 limits assumed): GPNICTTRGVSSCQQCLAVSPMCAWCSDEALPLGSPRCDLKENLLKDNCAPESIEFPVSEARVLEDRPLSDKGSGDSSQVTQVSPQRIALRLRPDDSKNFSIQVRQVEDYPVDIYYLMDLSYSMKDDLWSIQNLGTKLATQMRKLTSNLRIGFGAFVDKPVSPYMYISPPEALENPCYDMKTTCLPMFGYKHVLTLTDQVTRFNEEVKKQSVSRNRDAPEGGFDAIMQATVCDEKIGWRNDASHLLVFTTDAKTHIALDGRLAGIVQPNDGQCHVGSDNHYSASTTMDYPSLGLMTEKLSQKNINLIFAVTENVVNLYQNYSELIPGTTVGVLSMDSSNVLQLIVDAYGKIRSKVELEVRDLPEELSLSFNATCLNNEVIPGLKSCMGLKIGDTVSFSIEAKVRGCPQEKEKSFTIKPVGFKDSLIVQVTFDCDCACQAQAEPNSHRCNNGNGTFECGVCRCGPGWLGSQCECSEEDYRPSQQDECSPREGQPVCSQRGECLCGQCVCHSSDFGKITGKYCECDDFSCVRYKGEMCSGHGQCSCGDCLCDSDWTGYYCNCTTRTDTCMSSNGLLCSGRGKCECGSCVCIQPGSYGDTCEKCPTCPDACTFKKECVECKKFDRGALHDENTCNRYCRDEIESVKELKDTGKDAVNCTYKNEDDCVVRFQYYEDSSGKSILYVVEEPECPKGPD

SMILES | inhibitory activity at ανβ3 (in words) [1] | IC50 [1] | inhibitory activity at ανβ8 (in words) [2] | IC50 [2] | inhibitory activity at α5β1 (in words) [3] | IC50 [3] | inhibitory activity at ανβ6 (in words) [4] | IC50 [4]
COc1ccc(C(C)(C)C)cc1C(CC(=O)O)Cc1cc(OCCc2ccc3c(n2)NCCC3)n(C)n1 (stereo not shown) [Example 32, 3-(5-(tert-butyl)-2-methoxyphenyl)-4-(1-methyl-5-(2-(5,6,7,8-tetrahydro-1,8-naphthyridin-2-yl)ethoxy)-1H-pyrazol-3-yl)butanoic Acid] | low activity | 380 nM | low activity | 87 nM | high inhibitory activity | 33 nM | low activity | 230 nM
COc1c(C(CC(=O)O)Cc2cc(OCCc3ccc4c(n3)NCCC4)n(C)n2)cccc1C(C)(C)C (stereo not shown) [Example 33, 3-(3-(tert-butyl)-2-methoxyphenyl)-4-(1-methyl-5-(2-(5,6,7,8-tetrahydro-1,8-naphthyridin-2-yl)ethoxy)-1H-pyrazol-3-yl)butanoic Acid] | – | 150 nM | – | 970 nM | – | 3900 nM | – | 2400 nM
Cn1nc(CC(CC(=O)O)c2cc(OC(F)(F)F)cc(C(C)(C)C)c2)cc1OCCc1ccc2c(n1)NCCC2 (stereo not shown) [Example 36, 3-[3-tert-butyl-5-(trifluoromethoxy)phenyl]-4-[1-methyl-5-[2-(5,6,7,8-tetrahydro-1,8-naphthyridin-2-yl)ethoxy]pyrazol-3-yl]butanoic Acid] | – | 10 nM | – | 40 nM | – | 7.1 nM | – | 120 nM
COc1ccc([C@H](CC(=O)O)Cc2cc(OCCc3ccc4c(n3)NCCC4)n(C)n2)cc1F [Example 15, (3S)-3-(3-fluoro-4-methoxyphenyl)-4-(1-methyl-5-(2-(5,6,7,8-tetrahydro-1,8-naphthyridin-2-yl)ethoxy)-1H-pyrazol-3-yl)butanoic Acid] | – | 2.6 nM | – | 90 nM | – | 85 nM | – | 49 nM
Cn1nc(CC(CC(=O)O)c2ccc(Br)c(F)c2)cc1OCCc1ccc2c(n1)NCCC2 (stereo not shown) [Example 4, 3-(4-bromo-3-fluorophenyl)-4-(1-methyl-5-(2-(5,6,7,8-tetrahydro-1,8-naphthyridin-2-yl)ethoxy)-1H-pyrazol-3-yl)butanoic Acid] | – | 3 nM | – | 79 nM | – | 343 nM | – | 189 nM
Cn1nc(CC(CC(=O)O)c2ccc(F)c(Br)c2)cc1OCCc1ccc2c(n1)NCCC2 (stereo not shown) [Example 5, 3-(3-bromo-4-fluorophenyl)-4-(1-methyl-5-(2-(5,6,7,8-tetrahydro-1,8-naphthyridin-2-yl)ethoxy)-1H-pyrazol-3-yl)butanoic Acid] | – | 6 nM | – | 16 nM | – | 140 nM | – | 73 nM
Cn1nc(CC(CC(=O)O)c2cccc(C#N)c2)cc1OCCc1ccc2c(n1)NCCC2 (stereo not shown) [Example 9, 3-(3-cyanophenyl)-4-(1-methyl-5-(2-(5,6,7,8-tetrahydro-1,8-naphthyridin-2-yl)ethoxy)-1H-pyrazol-3-yl)butanoic Acid] | – | 6 nM | – | 62 nM | – | 110 nM | – | 12 nM
Cn1nc(CC(CC(=O)O)c2cc(F)cc(C(C)(C)C(F)(F)F)c2)cc1OCCc1ccc2c(n1)NCCC2 (stereo not shown) [Example 24, 3-(3-fluoro-5-(1,1,1-trifluoro-2-methylpropan-2-yl)phenyl)-4-(1-methyl-5-(2-(5,6,7,8-tetrahydro-1,8-naphthyridin-2-yl)ethoxy)-1H-pyrazol-3-yl)butanoic Acid] | – | 4.5 nM | – | 89 nM | – | 15 nM | – | 110 nM
COCC1(c2cc(F)cc(C(CC(=O)O)Cc3cc(OCCc4ccc5c(n4)NCCC5)n(C)n3)c2)CCOCC1 (stereo not shown) [Example 30, 3-(3-fluoro-5-(4-(methoxymethyl)tetrahydro-2H-pyran-4-yl)phenyl)-4-(1-methyl-5-(2-(5,6,7,8-tetrahydro-1,8-naphthyridin-2-yl)ethoxy)-1H-pyrazol-3-yl)butanoic Acid] | – | 8.1 nM | – | 81 nM | – | 12 nM | – | 180 nM
Cn1nc(CC(CC(=O)O)c2cc(F)cc(C3(C(F)F)CC3)c2)cc1OCCc1ccc2c(n1)NCCC2 (stereo not shown) [Example 21, 3-(3-(1-(difluoromethyl)cyclopropyl)-5-fluorophenyl)-4-(1-methyl-5-(2-(5,6,7,8-tetrahydro-1,8-naphthyridin-2-yl)ethoxy)-1H-pyrazol-3-yl)butanoic Acid] | – | 2.5 nM | – | 53 nM | – | 12 nM | – | 47 nM
Cn1nc(CC(CC(=O)O)c2ccc(F)c(C#N)c2)cc1OCCc1ccc2c(n1)NCCC2 (stereo not shown) [Example 7, 3-(3-cyano-4-fluorophenyl)-4-(1-methyl-5-(2-(5,6,7,8-tetrahydro-1,8-naphthyridin-2-yl)ethoxy)-1H-pyrazol-3-yl)butanoic Acid] | – | 7 nM | – | 23 nM | – | 224 nM | – | 50 nM
Cn1nc(CC(CC(=O)O)c2cc(Cl)cc(C(C)(C)C(F)(F)F)c2)cc1OCCc1ccc2c(n1)NCCC2 (stereo not shown) [Example 27, 3-(3-chloro-5-(1,1,1-trifluoro-2-methylpropan-2-yl)phenyl)-4-(1-methyl-5-(2-(5,6,7,8-tetrahydro-1,8-naphthyridin-2-yl)ethoxy)-1H-pyrazol-3-yl)butanoic Acid] | – | 5.6 nM | – | 11 nM | – | 18 nM | – | 47 nM
CC(C)c1cc(Br)cc(C(CC(=O)O)Cc2cc(OCCc3ccc4c(n3)NCCC4)n(C)n2)c1 (stereo not shown) [Example 40, 3-(3-bromo-5-isopropyl-phenyl)-4-[1-methyl-5-[2-(5,6,7,8-tetrahydro-1,8-naphthyridin-2-yl)ethoxyl]pyrazol-3-yl]butanoic acid trifluoroacetate] | – | 7.2 nM | – | 9 nM | – | 21 nM | – | 79 nM
Cn1nc(CC(CC(=O)O)c2cc(C(F)(F)F)cc(C3(C(F)F)CC3)c2)cc1OCCc1ccc2c(n1)NCCC2 (stereo not shown) [Example 23, 3-(3-(1-(difluoromethyl)cyclopropyl)-5-(trifluoromethyl)phenyl)-4-(1-methyl-5-(2-(5,6,7,8-tetrahydro-1,8-naphthyridin-2-yl)ethoxy)-1H-pyrazol-3-yl)butanoic Acid] | – | 7.5 nM | – | 7.9 nM | – | 8.8 nM | – | 38 nM
Cn1nc(CC(CC(=O)O)c2cccc(C(C)(C)C)c2)cc1OCCc1ccc2c(n1)NCCC2 (stereo not shown) [Example 49, 3-(3-tert-butylphenyl)-4-[1-methyl-5-[2-(5,6,7,8-tetrahydro-1,8-naphthyridin-2-yl)ethoxy]pyrazol-3-yl]butanoic Acid Trifluoroacetate] | – | 7 nM | – | 73 nM | – | 12 nM | – | 94 nM
COCC1(c2cc(C(CC(=O)O)Cc3cc(OCCc4ccc5c(n4)NCCC5)n(C)n3)cc(C(F)(F)F)c2)CCOCC1 (stereo not shown) [Example 31, 3-(3-(4-(methoxymethyl)tetrahydro-2H-pyran-4-yl)-5-(trifluoromethyl)phenyl)-4-(1-methyl-5-(2-(5,6,7,8-tetrahydro-1,8-naphthyridin-2-yl)ethoxy)-1H-pyrazol-3-yl)butanoic Acid] | – | 6.5 nM | – | 9.9 nM | – | 12 nM | – | 63 nM
COc1cc(C(C)(C)C)ccc1C(CC(=O)O)Cc1cc(OCCc2ccc3c(n2)NCCC3)n(C)n1 (stereo not shown) [Example 34, 3-(4-(tert-butyl)-2-methoxyphenyl)-4-(1-methyl-5-(2-(5,6,7,8-tetrahydro-1,8-naphthyridin-2-yl)ethoxy)-1H-pyrazol-3-yl)butanoic Acid] | – | 4.6 nM | – | 42 nM | – | 550 nM | – | 130 nM
Cn1nc(CC(CC(=O)O)c2cc(Cl)cc(C3(C(F)F)CC3)c2)cc1OCCc1ccc2c(n1)NCCC2 (stereo not shown) [Example 22, 3-(3-chloro-5-(1-(difluoromethyl)cyclopropyl)phenyl)-4-(1-methyl-5-(2-(5,6,7,8-tetrahydro-1,8-naphthyridin-2-yl)ethoxy)-1H-pyrazol-3-yl)butanoic Acid] | – | 3.3 nM | – | 17 nM | – | 8.8 nM | – | 26 nM
